Values quoted from earlier work, collected in patent US20030194514A1 (priority 2002, published 2003).

Legend:
[1] = diluent level of 15%; cited from earlier work
[2] = per Brit. 1,132,417; cited from earlier work
[3] = especially at a dilution level of 20-30%; cited from earlier work

c1ccccc1 [benzene]
Judgement as stabilizer for propargyl bromide by impact tests [1]: poor stabilizers

ClC(Cl)Cl [chloroform]
Effectiveness of the solvent in stabilizing propargyl bromide [2]: ineffective | Judgement as stabilizer for propargyl bromide by impact tests [1]: poor stabilizers

CCOCC [diethyl ether]
Judgement as stabilizer for propargyl bromide by impact tests [1]: appeared promising

CC(C)OC(C)C [diisopropyl ether]
Judgement as stabilizer for propargyl bromide by impact tests [1]: appeared promising

C1COCCO1 [dioxane]
Effectiveness of the solvent in stabilizing propargyl bromide [2]: effective

CCO [ethanol]
Effectiveness of the solvent in stabilizing propargyl bromide [2]: effective

NC=O [formamide]
Effectiveness of the solvent in stabilizing propargyl bromide [2]: ineffective | Judgement as stabilizer for propargyl bromide by impact tests [1]: poor stabilizers

CCCCCC [hexane]
Effectiveness of the solvent in stabilizing propargyl bromide [2]: ineffective | Judgement as stabilizer for propargyl bromide by impact tests [1]: poor stabilizers

C1CCOC1 [tetrahydrofuran]
Effectiveness of the solvent in stabilizing propargyl bromide [2]: effective

Cc1ccccc1 [toluene]
Judgement as stabilizer in confinement tests [3]: material of choice

xylene
Effectiveness of the solvent in stabilizing propargyl bromide [2]: effective
